Read-outs that look alike come from different tables or passages of the source. Where a SMILES comes first, the peptide text is derived from it. Bridges are numbered along the chain shown (N, C = ends). Triazole bridges read from a SMILES are 1,4-linked. [ ]: non-standard residue; d: D form. The star is where a group is joined. Benzoyl(4-guanidino) = N=C(N)Nc1ccc(C(=O)*)cc1; Pro(4S-NH2) = N[C@@H]1CN[C@H](C(=O)O)C1; Orn(N3) = [N-]=[N+]=NCCC[C@H](N)C(=O)O; Aha = [N-]=[N+]=NCC[C@H](N)C(=O)O; Cav = NC(N)=NOCC[C@H](N)C(=O)O; Hpra = C#CCC[C@H](N)C(=O)O; hCys = N[C@@H](CCS)C(=O)O; Orn = NCCC[C@H](N)C(=O)O; Pra = C#CC[C@H](N)C(=O)O
Columns and labels:
[1] = type: in vitro ADME; settings: plasma
Protocol: Plasmas from 3 species (including commercially available human healthy donors) were adjusted to pH 7.4 if necessary. Incubations were performed at a concentration of 1 µM of the compound at 37 °C (in the presence of a final concentration of DMSO of 2.5% v/v. The incubations were stopped at 0, 15, 30, 60 and 120 min by methanol. Each time point was run in sextuplets. The sampling plates were then centrifuged (2500 rpm, 45 min, 4 °C) and the supernatants pooled. Samples were analyzed for parent compound by LC-MS/MS. The percentage of parent compound remaining at each time point relative to the 0 min sample is then calculated from LC-MS/MS peak area ratios. Then, the stability in plasma was evaluated by incubating human, rat or mouse plasma with the compound(s) as follows: the product (0.1 µM in TRIS buffer pH 7.4 0.1% BSA) was incubated with the plasma at 37 °C. The disappearance of the product was measured at 15, 45, 120, 240 and 300 min by mass spectrometry. Incubations were carried out in a robot Star (Hamilton France, Villebon-sur-Yvette, France). At each sampling time, 50 µL of the reaction medium was removed and diluted with 100 µL of acetonitrile. After centrifugation (20 min at + 4 °C, 4000 rpm), 75 µL of the supernatants was transferred into a 384 well injection plate. Ten microliters were injected onto UPLC coupled with a XEVO TQS mass spectrometer system (Waters, Milford, MA, USA). The unchanged product is quantified using a reference sample (0.1 µM) prepared during the incubation process. A second reference sample at 0.01 µM is prepared in the same conditions to verify the linearity of the detection method. The peak height (or area) is measured to calculate the half-life of the compound.

human MCH-R1 = target: T1, human MCH-R1 (Homo sapiens, UniProt Q99705); assay: MCH-induced cytosolic Ca2+ ion mobilization, antagonist effect; type: cell-based; settings: antagonism of MCH-induced cytosolic Ca2+ mobilization; read-out: Ki (functionality, antagonism at MCH-R1)
T1 construct: expressed in transfected cells
T1 sequence (Q99705 whole entry): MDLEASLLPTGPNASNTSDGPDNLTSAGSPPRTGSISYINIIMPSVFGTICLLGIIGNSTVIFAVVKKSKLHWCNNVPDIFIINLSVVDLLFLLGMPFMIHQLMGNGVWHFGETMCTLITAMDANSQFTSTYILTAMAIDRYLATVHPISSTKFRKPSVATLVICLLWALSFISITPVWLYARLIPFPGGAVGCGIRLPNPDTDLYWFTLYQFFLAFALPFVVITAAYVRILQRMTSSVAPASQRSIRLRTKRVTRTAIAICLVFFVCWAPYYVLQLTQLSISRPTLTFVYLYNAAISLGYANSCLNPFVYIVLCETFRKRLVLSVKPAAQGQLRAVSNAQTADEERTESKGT
Protocol: The functional assay was run onto cells expressing the hMCH-R1 receptor, as described in Wang et al.. In brief, the cells are suspended in DMEM buffer (Invitrogen), then distributed in microplates at a density of 4.104 cells/well. The fluorescent probe (Fluo4 Direct, Invitrogen) mixed with probenecid in Hanks’ Balanced Salt solution (HBSS) (Invitrogen) complemented with 20 mM HEPES (Invitrogen) (pH 7.4) is then added into each well and equilibrated with the cells for 60 min at 37 °C, then 15 min at 22 °C. Then, the assay plates are positioned in a microplate reader (CellLux, PerkinElmer) which is used for the addition of the test compound, reference agonist or HBSS buffer (basal control), and the measurements of changes in fluorescence intensity, which varies proportionally to the free cytosolic Ca^2+ ion concentration. For stimulated control measurements, MCH at 300 nM is added in separate assay wells. The results are expressed as a percentage of the control response to 300 nM MCH. The standard reference agonist is MCH, which is tested in each experiment at several concentrations to generate a concentration-response curve from which its EC50 value is calculated. For the antagonist effect, the results are expressed as a percentage inhibition of the control response to 30 nM MCH, which was added to all tested wells and controls 5 min after the candidate products.

CSCC[C@@H]1NC(=O)[C@@H](NC(=O)c2ccc(NC(=N)N)cc2)CCC(=O)NCCC[C@@H](C(=O)N[C@@H](Cc2c[nH]c3ccccc23)C(=O)O)NC(=O)[C@@H]2CCCN2C(=O)[C@H](CCCNC(=N)N)NC(=O)[C@H](C(C)C)NC(=O)[C@H](CCCNC(=N)N)NC(=O)[C@H](CC(C)C)NC1=O [GPS12744] ({Benzoyl(4-guanidino)}-EMLRVRP[Orn]W-OH; lactam 1-8) gave a half-life ([1]; human) of no less than 5 h, a half-life ([1]; mouse) of 0.433 ± 0.05 h and a half-life ([1]; rat) of 2.38 ± 0.2 h.

CSCC[C@@H]1NC(=O)[C@@H](NC(=O)c2ccc(NC(=N)N)cc2)CCCn2cc(nn2)C[C@@H](C(=O)N[C@@H](Cc2c[nH]c3ccccc23)C(=O)O)NC(=O)[C@@H]2CCCN2C(=O)[C@H](CCCNC(=N)N)NC(=O)[C@H](C(C)C)NC(=O)[C@H](CCCNC(=N)N)NC(=O)[C@H](CC(C)C)NC1=O [GPS14519] ({Benzoyl(4-guanidino)}-[Orn(N3)]MLRVRP[Pra]W-OH; triazole 1-8) gave a Ki (human MCH-R1) of 0.43 nM.

For CSCC[C@H](NC(=O)[C@H](CCC(=O)O)NC(=O)c1ccc(NC(=N)N)cc1)C(=O)N[C@@H](CC(C)C)C(=O)N[C@@H](CCCNC(=N)N)C(=O)N[C@H](C(=O)N[C@@H](CCCNC(=N)N)C(=O)N1CCC[C@H]1C(=O)N[C@@H](CCCN)C(=O)N[C@@H](Cc1c[nH]c2ccccc12)C(=O)O)C(C)C [GPS13669] ({Benzoyl(4-guanidino)}-EMLRVRP[Orn]W-OH), the Ki (human MCH-R1) was 300 nM.

Work on CSCC[C@@H]1NC(=O)[C@@H](NC(=O)c2ccc(NC(=N)N)cc2)Cc2cn(nn2)CCC[C@@H](C(=O)N[C@@H](Cc2c[nH]c3ccccc23)C(=O)O)NC(=O)[C@@H]2CCCN2C(=O)[C@H](CCCNC(=N)N)NC(=O)[C@H](C(C)C)NC(=O)[C@H](CCCNC(=N)N)NC(=O)[C@H](CC(C)C)NC1=O [GPS14518] ({Benzoyl(4-guanidino)}-[Pra]MLRVRP[Orn(N3)]W-OH; triazole 1-8) yielded a Ki (human MCH-R1) of 0.027 nM.

Molecule CSCC[C@@H]1NC(=O)[C@@H](NC(=O)c2ccc(NC(=N)N)cc2)CCC(=O)NCCC[C@@H](C(=O)N[C@@H](Cc2c[nH]c3ccccc23)C(=O)O)NC(=O)[C@@H]2CCCN2C(=O)[C@H](CCON=C(N)N)NC(=O)[C@H](C(C)C)NC(=O)[C@H](CCCNC(=N)N)NC(=O)[C@H](CC(C)C)NC1=O [GPS13683] ({Benzoyl(4-guanidino)}-EMLRV[Cav]P[Orn]W-OH; lactam 1-8) has a Ki (human MCH-R1) of 0.15 nM.

Molecule CCSCC[C@@H]1NC(=O)[C@@H](NC(=O)c2ccc(NC(=N)N)cc2)CCC(=O)NCCC[C@@H](C(=O)N[C@@H](Cc2c[nH]c3ccccc23)C(=O)O)NC(=O)[C@@H]2CCCN2C(=O)[C@H](CCCNC(=N)N)NC(=O)[C@H](C(C)C)NC(=O)[C@H](CCCNC(=N)N)NC(=O)[C@H](CC(C)C)NC1=O [GPS13663] ({Benzoyl(4-guanidino)}-E[hCys](Et)LRVRP[Orn]W-OH; lactam 1-8) has a half-life ([1]; human) of no less than 5 h, a half-life ([1]; mouse) of 0.317 ± 0.0167 h and a half-life ([1]; rat) of 1.57 ± 0.05 h.

With CSCC[C@@H]1NC(=O)[C@@H](NC(=O)c2ccc(NC(=N)N)cc2)CCC(=O)NCCC[C@@H](C(=O)N[C@@H](Cc2c[nH]c3ccccc23)C(=O)O)NC(=O)[C@@H]2C[C@H](N)CN2C(=O)[C@H](CCCNC(=N)N)NC(=O)[C@H](C(C)C)NC(=O)[C@H](CCCNC(=N)N)NC(=O)[C@H](CC(C)C)NC1=O [GPS13684] ({Benzoyl(4-guanidino)}-EMLRVR[Pro(4S-NH2)][Orn]W-OH; lactam 1-8) the half-life ([1]; human) was no less than 5 h, the half-life ([1]; mouse) was 0.433 ± 0.0167 h and the half-life ([1]; rat) was 2.25 ± 0.15 h.

With CSCC[C@@H]1NC(=O)[C@@H](NC(=O)c2ccc(NC(=N)N)cc2)CCn2cc(nn2)CC[C@@H](C(=O)N[C@@H](Cc2c[nH]c3ccccc23)C(=O)O)NC(=O)[C@@H]2CCCN2C(=O)[C@H](CCCNC(=N)N)NC(=O)[C@H](C(C)C)NC(=O)[C@H](CCCNC(=N)N)NC(=O)[C@H](CC(C)C)NC1=O [GPS14517] ({Benzoyl(4-guanidino)}-[Aha]MLRVRP[Hpra]W-OH; triazole 1-8) the Ki (human MCH-R1) was 0.022 nM.
